Assay results from patent US5475132A, “Antifungal agents based on amides containing a phenyl group” (Rhone-Poulenc Agrochimie, priority 1988, dated 1995).

Test system: Phytophthora citrophthora
Experiment: Example B3: action on phytopathogenic soil fungi, growth on agar in Petri dishes
Format: cell-based
Details: 120 h, 30 ppm, agar medium, 22° C., 5 days, read-out: inhibition of the development of the fungus

| SMILES | inhibition at 30 ppm [%] |
| --- | --- |
| COc1ccc(-c2nc(SCc3ccc(Cl)cc3)ncc2C(=O)N2CCOCC2)cc1OC [Compound 435] | ≥ 80 |
| COc1ccc(-c2nc(Sc3ccc(Cl)cc3)ncc2C(=O)N2CCOCC2)cc1OC [Compound 436] | ≥ 80 |
| COc1ccc(-c2nc(Oc3ccc(Cl)cc3)ncc2C(=O)N2CCOCC2)cc1OC [Compound 437] | ≥ 80 |
| COc1ccc(-c2nc(Oc3ccc(Br)cc3)ncc2C(=O)N2CCOCC2)cc1OC [Compound 438] | ≥ 80 |
| COc1ccc(-c2nc(Oc3ccc(F)cc3)ncc2C(=O)N2CCOCC2)cc1OC [Compound 439] | ≥ 80 |
| COc1ccc(-c2nc(Oc3ccccc3C)ncc2C(=O)N2CCOCC2)cc1OC [Compound 440] | ≥ 80 |
| COc1ccc(-c2nc(Oc3ccc(Cl)c(C)c3)ncc2C(=O)N2CCOCC2)cc1OC [Compound 441] | ≥ 80 |
| COc1ccc(-c2nc(Oc3ccc(C(F)(F)F)cc3)ncc2C(=O)N2CCOCC2)cc1OC [Compound 442] | ≥ 80 |
| COc1ccc(-c2nc(Sc3cccc(Cl)c3)ncc2C(=O)N2CCOCC2)cc1OC [Compound 445] | ≥ 80 |
| COc1ccc(-c2nc(Sc3ccc(Br)cc3)ncc2C(=O)N2CCOCC2)cc1OC [Compound 447] | ≥ 80 |
| COc1ccc(-c2nc(Sc3ccc(F)cc3)ncc2C(=O)N2CCOCC2)cc1OC [Compound 449] | ≥ 80 |
| COc1ccc(-c2nc(Sc3ccc(Cl)c(Cl)c3)ncc2C(=O)N2CCOCC2)cc1OC [Compound 450] | ≥ 80 |
| COc1ccc(-c2nc(N3CCCCC3)ncc2C(=O)N2CCOCC2)cc1OC [Compound 458] | ≥ 80 |
| COc1ccc(-c2cc(-c3ccccc3)nc(C)c2C(=O)N2CCOCC2)cc1OC [Compound 505, N-[4-(3,4-dimethoxyphenyl)-2-methyl-6-phenylnicotinoyl]morpholine] | ≥ 80 |
| CCN(C)C(=O)c1c(-c2ccc(OC)c(OC)c2)cc(-c2ccccc2)nc1C [Compound 506] | ≥ 80 |
| COCCN(C)C(=O)c1c(-c2ccc(OC)c(OC)c2)cc(-c2ccccc2)nc1C [Compound 507] | ≥ 80 |
| COc1ccc(-c2c(C(=O)N3CCOCC3)cc(-c3ccc(F)cc3)n2C)cc1OC [Compound 607, 5-(4-fluorophenyl)-2-(3,4-dimethoxyphenyl)-1-methyl-3-(morpholinocarbonyl)pyrrole] | ≥ 80 |
| COc1ccc(-c2c(C(=O)N3CCOCC3)cnn2-c2ccc(Cl)cc2)cc1OC [Compound 608, 2-(4-Chlorophenyl)-3-(3,4-dimethoxyphenyl)-4-(morpholinocarbonyl)pyrazole] | ≥ 80 |
| COc1ccc(-c2c(C(=O)N3CCOCC3)cc(-c3ccc(Cl)cc3)n2C)cc1OC [Compound 619] | ≥ 80 |
| COc1ccc(-c2c(C(=O)N3CCOCC3)cc(-c3ccccc3)n2C)cc1OC [Compound 621] | ≥ 80 |
| COc1ccc(-c2nc(C(C)(C)C)ccc2C(=O)N2CCOCC2)cc1OC [Compound 3110] | ≥ 80 |
| COc1ccc(-c2nc(C=C(C)C)ccc2C(=O)N2CCOCC2)cc1OC [Compound 3111] | ≥ 80 |
| COc1ccc(-c2nc(-c3ccsc3)ccc2C(=O)N2CCOCC2)cc1OC [Compound 3112] | ≥ 80 |
| COc1ccc(-c2nc(-c3cccs3)ccc2C(=O)N2CCOCC2)cc1OC [Compound 3113] | ≥ 80 |
| COc1ccc(-c2nc(-c3cccc4ccccc34)ccc2C(=O)N2CCOCC2)cc1OC [Compound 3114] | ≥ 80 |
| COc1ccc(-c2nc(-c3ccc4ccccc4c3)ccc2C(=O)N2CCOCC2)cc1OC [Compound 3115] | ≥ 80 |
| COc1ccc(-c2nc(-c3ccco3)ccc2C(=O)N2CCOCC2)cc1OC [Compound 3116] | ≥ 80 |
| COCCN(C)C(=O)c1ccc(-c2ccsc2)nc1-c1ccc(OC)c(OC)c1 [Compound 3117] | ≥ 80 |
| CCN(C)C(=O)c1ccc(-c2ccsc2)nc1-c1ccc(OC)c(OC)c1 [Compound 3118] | ≥ 80 |
| CCN(CC)C(=O)c1ccc(-c2ccsc2)nc1-c1ccc(OC)c(OC)c1 [Compound 3119] | ≥ 80 |
